How the values were obtained:
Type in all cases: in vivo
Details in all cases: rating 0-100 (0 no damage, 100 complete death), 14 days after application
[1] = system: redroot pigweed (Amaranthus retroflexus, AMARE); experiment: Pre-emerge herbicidal activity, greenhouse screen, AMARE
Method in brief: (§1)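 Planting preceded application by one day (pre-emerge) or 8-21 days (post-emerge). Acetone solutions went on by track sprayer in 187 l/ha at 15 g ai/ha to 1000 g ai/ha, with surfactant for post-emerge; pre-emerge pots were surface-watered right after spraying. Damage scored at 14 days (0-100).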

[2] = system: velvetleaf (Abutilon theophrasti, ABUTH); experiment: Pre-emerge herbicidal activity, greenhouse screen, ABUTH
Method in brief: as §1

[3] = system: sicklepod (Cassia obtusifolia, CASOB); experiment: Pre-emerge herbicidal activity, greenhouse screen, CASOB
Method in brief: as §1

[4] = system: ivyleaf morningglory (Ipomoea hederacea, IPOHE); experiment: Pre-emerge herbicidal activity, greenhouse screen, IPOHE
Method in brief: as §1

[5] = system: lambsquarters (Chenopodium album, CHEAL); experiment: Pre-emerge herbicidal activity, greenhouse screen, CHEAL
Method in brief: as §1

[6] = system: common ragweed (Ambrosia artemisiifolia L., AMBEL); experiment: Pre-emerge herbicidal activity, greenhouse screen, AMBEL
Method in brief: as §1

[7] = system: green foxtail (Setaria viridis, SETVI); experiment: Pre-emerge herbicidal activity, greenhouse screen, SETVI
Method in brief: as §1

[8] = system: barnyardgrass (Echinochloa crus-galli, ECHCG); experiment: Pre-emerge herbicidal activity, greenhouse screen, ECHCG
Method in brief: as §1

[9] = system: johnsongrass (Sorghum halepense, SORHA); experiment: Pre-emerge herbicidal activity, greenhouse screen, SORHA
Method in brief: as §1

[10] = system: large crabgrass (Digitaria sanguinalis, DIGSA); experiment: Pre-emerge herbicidal activity, greenhouse screen, DIGSA
Method in brief: as §1

[11] = system: field corn (Zea mays L., var. Dekalb 527, CORN); experiment: Pre-emerge crop damage, greenhouse screen, CORN
Source text: (§2) A standard greenhouse herbicide activity screening system was used to evaluate the herbicidal efficacy and crop safety of these test compounds. Seven broadleaf weed species including redroot pigweed (Amaranthus retroflexus, AMARE), velvetleaf (Abutilon theophrasti, ABUTH), sicklepod (Cassia obtusifolia, CASOB), ivyleaf morningglory (Ipomoea hederacea, IPOHE), lambsquarters (Chenopodium album, CHEAL), common ragweed (Ambrosia artemisiifolia L., AMBEL), and cocklebur (Xanthium strumarium, XANST) were used as test species. Four grass weed species including green foxtail (Setaria viridis, SETVI), barnyardgrass (Echinochloa crus-galli, ECHCG), johnsongrass (Sorghum halepense, SORHA), and large crabgrass (Digitaria sanguinalis, DIGSA) were also used. In addition, three crop species, field corn (Zea mays L., var. Dekalb 527, CORN), soybean (Glycine max L., var. Pella 86, SOY), and upland rice (Oryza sp., var. Tebonnet, RICE) were included.
(§3) All plants were grown in 10 cm square plastic pots which were filled with a sandy loam soil mix. For pre-emerge tests, seeds were planted one day prior to application of the test compounds. For post-emerge tests, seeds were planted 8-21 days prior to the test to allow emergence and good foliage development prior to application of the test substances. At the time of the post-emerge application, plants of all species were usually at the 2-3 leaf stage of development.
(§4) All test compounds were dissolved in acetone and applied to the test units in a volume of 187 l/ha. Test materials were applied at rates ranging from 15 g ai/ha to 1000 g ai/ha using a track sprayer equipped with a TJ8001 E even flow flat fan spray nozzle. Plants were arranged on a shelf so that the top of the canopy (post-emerge) or top of the soil surface (pre-emerge) was 40-45 cm below the nozzle. Pressurized air was used to force the test solution through the nozzle as it was mechanically advanced over the top of all test plants/pots. This application simulates a typical commercial field herbicide application.
(§5) In the post-emerge test, a commercial non-ionic surfactant was also included (0.25% v/v) to enhance wetting of the leaf surfaces of target plants. Immediately after application, test units of the pre-emerge applications were watered at the soil surface to incorporate the test materials.
(§6) At 14 days after application of the test materials, phytotoxicity ratings were recorded. A rating scale of 0-100 was used as previously described in Research Methods in Weed Science, 2nd edition, B. Truelove, Ed., Southern Weed Science Society, Auburn University, Auburn, Ala., 1977. Briefly, “0” corresponds to no damage and “100” corresponds to complete death of all plants in the test unit. This scale was used both to determine efficacy against weed species and damage to crop species. Herbicide activity data for various compounds of this invention, which are shown by compound No. in Tables 1-7, are shown in Tables 8 and 9.

[12] = system: soybean (Glycine max L., var. Pella 86, SOY); experiment: Pre-emerge crop damage, greenhouse screen, SOY
Source text: as §2, §3, §4, §5, §6

[13] = system: upland rice (Oryza sp., var. Tebonnet, RICE); experiment: Pre-emerge crop damage, greenhouse screen, RICE
Source text: as §2, §3, §4, §5, §6

[14] = system: redroot pigweed (Amaranthus retroflexus, AMARE); experiment: Post-emerge herbicidal activity, greenhouse screen, AMARE
Method in brief: (§7)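 Efficacy or crop injury scored 0-100 at 14 days. Seeds went into sandy loam one day (pre-emerge, then watered in) or 8-21 days (post-emerge, 0.25% surfactant) pre-spray; acetone solutions were delivered by a flat-fan nozzle at 187 l/ha and 15-1000 g ai/ha.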

[15] = system: velvetleaf (Abutilon theophrasti, ABUTH); experiment: Post-emerge herbicidal activity, greenhouse screen, ABUTH
Method in brief: as §7

[16] = system: sicklepod (Cassia obtusifolia, CASOB); experiment: Post-emerge herbicidal activity, greenhouse screen, CASOB
Method in brief: as §7

[17] = system: ivyleaf morningglory (Ipomoea hederacea, IPOHE); experiment: Post-emerge herbicidal activity, greenhouse screen, IPOHE
Method in brief: as §7

[18] = system: lambsquarters (Chenopodium album, CHEAL); experiment: Post-emerge herbicidal activity, greenhouse screen, CHEAL
Method in brief: as §7

[19] = system: common ragweed (Ambrosia artemisiifolia L., AMBEL); experiment: Post-emerge herbicidal activity, greenhouse screen, AMBEL
Method in brief: as §7

[20] = system: green foxtail (Setaria viridis, SETVI); experiment: Post-emerge herbicidal activity, greenhouse screen, SETVI
Method in brief: as §7

[21] = system: barnyardgrass (Echinochloa crus-galli, ECHCG); experiment: Post-emerge herbicidal activity, greenhouse screen, ECHCG
Method in brief: as §7

[22] = system: johnsongrass (Sorghum halepense, SORHA); experiment: Post-emerge herbicidal activity, greenhouse screen, SORHA
Method in brief: as §7

[23] = system: large crabgrass (Digitaria sanguinalis, DIGSA); experiment: Post-emerge herbicidal activity, greenhouse screen, DIGSA
Method in brief: as §7

[24] = system: field corn (Zea mays L., var. Dekalb 527, CORN); experiment: Post-emerge crop damage, greenhouse screen, CORN
Source text: as §2, §3, §4, §5, §6

[25] = system: soybean (Glycine max L., var. Pella 86, SOY); experiment: Post-emerge crop damage, greenhouse screen, SOY
Source text: as §2, §3, §4, §5, §6

[26] = system: upland rice (Oryza sp., var. Tebonnet, RICE); experiment: Post-emerge crop damage, greenhouse screen, RICE
Source text: as §2, §3, §4, §5, §6

Cn1c(C(F)(F)F)cc(=O)n(-c2c(F)ccc3nc(C(C)(C)C)oc23)c1=S [Compound 1-5]
Pre-emerge Herbicidal Activity AMARE ([1]; 63 g ai/ha): 100 | Pre-emerge Herbicidal Activity AMARE ([1]; 250 g ai/ha): 100 | Pre-emerge Herbicidal Activity ABUTH ([2]; 63 g ai/ha): 100 | Pre-emerge Herbicidal Activity ABUTH ([2]; 250 g ai/ha): 100 | Pre-emerge Herbicidal Activity CASOB ([3]; 63 g ai/ha): 90 | Pre-emerge Herbicidal Activity CASOB ([3]; 250 g ai/ha): 100 | Pre-emerge Herbicidal Activity IPOHE ([4]; 63 g ai/ha): 100 | Pre-emerge Herbicidal Activity IPOHE ([4]; 250 g ai/ha): 100 | Pre-emerge Herbicidal Activity CHEAL ([5]; 63 g ai/ha): 100 | Pre-emerge Herbicidal Activity CHEAL ([5]; 250 g ai/ha): 100 | Pre-emerge Herbicidal Activity AMBEL ([6]; 63 g ai/ha): 99 | Pre-emerge Herbicidal Activity AMBEL ([6]; 250 g ai/ha): 100 | Pre-emerge Herbicidal Activity SETVI ([7]; 63 g ai/ha): 100 | Pre-emerge Herbicidal Activity SETVI ([7]; 250 g ai/ha): 100 | Pre-emerge Herbicidal Activity ECHCG ([8]; 63 g ai/ha): 100 | Pre-emerge Herbicidal Activity ECHCG ([8]; 250 g ai/ha): 100 | Pre-emerge Herbicidal Activity SORHA ([9]; 63 g ai/ha): 99 | Pre-emerge Herbicidal Activity SORHA ([9]; 250 g ai/ha): 100 | Pre-emerge Herbicidal Activity DIGSA ([10]; 63 g ai/ha): 100 | Pre-emerge Herbicidal Activity DIGSA ([10]; 250 g ai/ha): 100 | Pre-emerge Herbicidal Activity CORN (crop damage) ([11]; 63 g ai/ha): 85 | Pre-emerge Herbicidal Activity CORN (crop damage) ([11]; 250 g ai/ha): 100 | Pre-emerge Herbicidal Activity SOY (crop damage) ([12]; 63 g ai/ha): 0 | Pre-emerge Herbicidal Activity SOY (crop damage) ([12]; 250 g ai/ha): 99 | Pre-emerge Herbicidal Activity RICE (crop damage) ([13]; 63 g ai/ha): 55 | Pre-emerge Herbicidal Activity RICE (crop damage) ([13]; 250 g ai/ha): 80 | Post-emerge Herbicidal Activity AMARE ([14]; 63 g ai/ha): 99 | Post-emerge Herbicidal Activity AMARE ([14]; 250 g ai/ha): 100 | Post-emerge Herbicidal Activity ABUTH ([15]; 63 g ai/ha): 100 | Post-emerge Herbicidal Activity ABUTH ([15]; 250 g ai/ha): 100 | Post-emerge Herbicidal Activity CASOB ([16]; 63 g ai/ha): 60 | Post-emerge Herbicidal Activity CASOB ([16]; 250 g ai/ha): 90 | Post-emerge Herbicidal Activity IPOHE ([17]; 63 g ai/ha): 100 | Post-emerge Herbicidal Activity IPOHE ([17]; 250 g ai/ha): 100 | Post-emerge Herbicidal Activity CHEAL ([18]; 63 g ai/ha): 95 | Post-emerge Herbicidal Activity CHEAL ([18]; 250 g ai/ha): 100 | Post-emerge Herbicidal Activity AMBEL ([19]; 63 g ai/ha): 90 | Post-emerge Herbicidal Activity AMBEL ([19]; 250 g ai/ha): 100 | Post-emerge Herbicidal Activity SETVI ([20]; 63 g ai/ha): 80 | Post-emerge Herbicidal Activity SETVI ([20]; 250 g ai/ha): 85 | Post-emerge Herbicidal Activity ECHCG ([21]; 63 g ai/ha): 100 | Post-emerge Herbicidal Activity ECHCG ([21]; 250 g ai/ha): 100 | Post-emerge Herbicidal Activity SORHA ([22]; 63 g ai/ha): 55 | Post-emerge Herbicidal Activity SORHA ([22]; 250 g ai/ha): 75 | Post-emerge Herbicidal Activity DIGSA ([23]; 63 g ai/ha): 60 | Post-emerge Herbicidal Activity DIGSA ([23]; 250 g ai/ha): 75 | Post-emerge Herbicidal Activity CORN (crop damage) ([24]; 63 g ai/ha): 15 | Post-emerge Herbicidal Activity CORN (crop damage) ([24]; 250 g ai/ha): 30 | Post-emerge Herbicidal Activity SOY (crop damage) ([25]; 63 g ai/ha): 50 | Post-emerge Herbicidal Activity SOY (crop damage) ([25]; 250 g ai/ha): 75 | Post-emerge Herbicidal Activity RICE (crop damage) ([26]; 63 g ai/ha): 65 | Post-emerge Herbicidal Activity RICE (crop damage) ([26]; 250 g ai/ha): 70

— US20040018941A1, “Fused-benzene derivatives of thiouracil, herbicidal and desiccant compositions contaning them” (ISHIHARA SANGYO KAISHA, LTD., priority 2002, published 2004)
